Reference: patent US20060167229A1, “Biologically active peptide conjugates” (priority 2002, published 2006)
Where “and” joins values, the source holds several entries; their conditions need not be identical. Identical values can stand only once. Marks after values point to notes of the source that are not given here. Ends that are not written are not given here.

What was measured:
interferon (IFN) = test system: interferon (IFN); parameters: species or system BALB/c mice; settings: mouse, in vivo; for activity of T lymphocyte in secreting IFN, X ± SD (IU): ip
T lymphocyte = T lymphocyte transformation test (ConA-stimulated spleen cells of treated mice, MTT); assay type: in vivo, BALB/c mice; settings: for X ± SD (stimulation index): healthy mice, saline 1.3 ± 0.1; for effect on T lymphocyte transformation (summary): statistically significant difference from saline in any of the dosage groups 0.5-500 μg/kg/day
Outline: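 Mice (10/group) received substances i.p. in 0.5 ml saline daily for 15 days; next day splenocytes (1×10^6/ml) were cultured 66 h at 37 °C with or without ConA (100 μg/ml stock added). MTT was added for 4 h and OD570 (ref 630 nm) read; stimulation index = mean ConA OD / mean control OD per mouse.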

[1] = test system: Sheep red blood cells (SRBC); assay: Humoral immunity (SRBC hemolysis index) of mice bearing transplanted B16 melanoma; assay type: in vivo, C57BL/6 mice; parameters: key: index = (OD540 sample ÷ reference OD540) × 500; settings: saline 19.0 ± 9.1
Description: Intraperitoneal injection, once per day. […] Treatment of all groups with testing substance lasted for 30 days or until the animal died unless otherwise specified.
Stock B16 mouse melanoma cells were incubated in DMEM/F12 medium supplemented with 10% fetal bovine serum, 37° C./5% CO2 for 72 hrs, then washed 3-4 times with Hank's solution. The cell concentration was adjusted to 1×10^5 per ml with Hank's solution and 0.1 ml of the cell suspension was injected via the tail vein into the testing mice to generate the B16 melanoma bearing animal model. Treatment with test substance started as described in section Method 1.
Sheep red blood cells (SRBC) were prepared by collecting blood from the cervical vein and put into a sterile flask with glass beads. The flask was shaken for 3 minutes and the blood then mixed with Alsever solution (glucose 2.05 g, NaCl 0.4 g, […] 0.8 g, adjust to 100 ml with distilled water) and stored at 4° C. Immediately before use, samples were centrifuged at 130 g, 5 minutes to collect the SRBC. The cells were washed two times by re-suspension and centrifugation in normal saline. Then the cell pellet was collected by centrifugation at 180 g for 10 minutes and re-suspended in saline to make the final working SRBC suspension, 2% (v/v).
Complement was prepared by adding 10 volumes of fresh Cavy serum into one volume centrifuge packed SRBC, and then gently shaken for 30 minutes at 4° C. The SRBC was removed by centrifugation at 200 g for 10 minutes. 10 volumes of normal saline were added to obtain the working complement solution.
On the testing animals, on the 27th date of test substance treatment, 0.2 ml of the working SRBC cell suspension was injected into each animal to raise antibody. On the day after the last test substance administration, blood was collected from the eye canthus and left at room temperature for one hour for serum exudation. After centrifugation at 200 g for 10 minutes, the collected serum was diluted by 500 times with normal saline.
To 1 ml diluted mouse serum of each mouse, 0.5 ml SRBC suspension was added. Ice cold. Then 1 ml working complement solution was added and incubated at 37° C. water bath for 10 minutes. Reactions were terminated by ice cold. Samples were then centrifuged at 200 g for 10 minutes to obtain the supernatant.
To 1 ml of this supernatant, 3 ml Drabkin solution was added and left at room temperature for 10 minutes. OD540 nm was obtained.
Reference OD540 nm was obtained by mixing 0.25 ml SRBC suspension with Drabkin solution to 4 ml and placed at room temperature for 10 minutes before OD540 nm was taken. Hemolysis index=(OD540 nm of test sample÷reference OD540 nm)×500 6.2 After the Humoral Immunity Study, the Mice were Killed by Cervical Vertebra Dislocation. Postmortem Examination of the Animals was Performed. The Pathological Changes were Recorded, and the Numbers of Melanoma Lung Metastasis Foci Were Counted. Results

IL-2 = assay: T lymphocyte IL-2 secretion test (HT-2 cell bioassay of ConA supernatant); assay type: in vivo, BALB/c mice; settings: for activity of T lymphocyte in secreting IL-2, X ± SD (IU): healthy mice; for effect on the secretion of interleukin-2 (IL-2) by T lymphocytes (summary): statistically significant difference from saline in any of the dosage groups 0.5-500 μg/kg/day
Description: Spleen cells of density 1×10^6/ml were placed onto a 96 wells cell culture plate, 100 μL/well, three parallel wells each of the assay sample and control sample per mouse. To the assay wells, 100 μl/well ConA of 100 μg/ml in RPMI-1640 was added, and […] plain RPMI-1640 was used for the controls. The cells were incubated for 66 hrs at 37° C., 5% CO2. The cells were then pelleted by centrifugation at 150 g for 10 minutes.
HT-2 cells at log phase were collected by centrifugation at 150 g for 10 minutes, and washed three times with cold Hank's solution by re-suspension and centrifugation. The collected HT-2 cells were re-suspended in RPMI-1640 and incubated at 37° C., 5% CO2 for 30 minutes. The cells were further washed twice with RPMI-1640 by re-suspension and centrifugation, and re-suspended to final concentration of 2×10^5/ml with RPMI-1640.
rIL-2 was diluted to the following concentration with RPMI-1640: 500 IU/ml, 250 IU/ml, 125 IU/ml, 62.5 IU/ml, 31.25 IU/ml, and […].
The plate was incubated at 37° C., 5% CO2 for 68 hours, then centrifuged at 150 g for 15 minutes and the supernatant removed. 100 μl 0.5 mg/ml MTT in RPMI-1640 without phenolsulfonphthalein was added into each well. After shaking for 3-4 minutes to re-suspend the cells, continue to incubate for another 4 hours. Samples were then centrifuged at 150 g for 15 minutes and the supernatant was removed. To each well, 120 μl 40 mM HCl-2-propanol was added, mixed for 3-4 minutes and OD analyzed at 570 nm, referenced at 630 nm with an ELISA plate reader.
The average OD of the three parallel wells of each dilution was taken and plotted against concentration on a semi-log paper, concentration on the X-axis. The concentration at 50% OD saturation was obtained for both the testing supernatant and rIL-2.

[2] = peptide 0.5 μg/kg/day i.p. 15 days (IFN-γ, IL-2 3×10^5 IU/kg/day)
[3] = peptide 0.51 g/kg/day (so in the source) i.p. 15 days (IFN-γ, IL-2 3×10^5 IU/kg/day), saline 38 ± 13
[4] = peptide 500 μg/kg/day i.p. 15 days (IFN-γ, IL-2 3×10^5 IU/kg/day)
[5] = peptide 500 μg/kg/day i.p. 15 days (IFN-γ, IL-2 3×10^5 IU/kg/day), saline 39 ± 10

Molecule | effect on the secretion of IFN by T lymphocytes (summary) (interferon (IFN)) | activity of T lymphocyte in secreting IFN, X ± SD (IU) (interferon (IFN)) | X ± SD (stimulation index) (T lymphocyte; [2]) | effect on T lymphocyte transformation (summary) (T lymphocyte) | Hemolysis index ([1]; dose 0.5 μg/kg) | Hemolysis index ([1]; dose 500 μg/kg) | activity of T lymphocyte in secreting IL-2, X ± SD (IU) (IL-2; [3]) | effect on the secretion of interleukin-2 (IL-2) by T lymphocytes (summary) (IL-2) | X ± SD (stimulation index) (T lymphocyte; [4]) | Hemolysis index ([1]; dose 5 μg/kg) | Hemolysis index ([1]; dose 50 μg/kg) | activity of T lymphocyte in secreting IL-2, X ± SD (IU) (IL-2; [5]) | X ± SD (stimulation index) (T lymphocyte; peptide 5 μg/kg/day i.p. 15 days (IFN-γ, IL-2 3×10^5 IU/kg/day)) | X ± SD (stimulation index) (T lymphocyte; peptide 50 μg/kg/day i.p. 15 days (IFN-γ, IL-2 3×10^5 IU/kg/day)) | Hemolysis index ([1]; controls: rhIL-2, rmIFN-γ 3 × 10^5 IU/kg, cyclophosphamide 20 mg/kg) | activity of T lymphocyte in secreting IL-2, X ± SD (IU) (IL-2; peptide 5 μg/kg/day i.p. 15 days (IFN-γ, IL-2 3×10^5 IU/kg/day), saline 37 ± 9) | activity of T lymphocyte in secreting IL-2, X ± SD (IU) (IL-2; peptide 50 μg/kg/day i.p. 15 days (IFN-γ, IL-2 3×10^5 IU/kg/day), saline 39 ± 10)
RVAPQQHPTL [CMS011] | enhance | 89 ± 18 IU | 1.6 ± 0.4 | enhance | 32.0 ± 14.7 | 34.4 ± 19.4 | 101 ± 19*^@^ IU | enhance |  |  |  |  |  |  |  |  | 
VAPEEHPTLLTEAPLNPK [CMS010] | enhance | 167 ± 13*^@^ IU and 142 ± 18*^@^ IU | 1.7 ± 0.3 | enhance | 34.9 ± 10.5*^$ | 50.1 ± 16.7*^$ | 66 ± 11 IU | enhance | 2.0 ± 0.3*^@^ | 51.0 ± 14.6*^$ | 39.6 ± 7.7*^$ | 125 ± 17*^@^ IU |  |  |  |  | 
IFN-γ: recombinant mouse IFN-γ (rmIFN-γ), Beijing Biotech Inc.; positive control (protein, UniProt P01580 23-155, looked up) Interferon gamma: HGTVIESLESLNNYFNSSGIDVEEKSLFLDIWRNWQKDGDMKILQSQIISFYLRLFEVLKDNQAISNNISVIESHLITTFFSNSKAKKDAFMSIAKFEVNNPQVQRQAFNELIRVVHQLLPESSLRKRKRSRC |  | 139 ± 16 IU and 125 ± 18 IU and 124 ± 16 IU | 1.6 ± 0.2 |  |  |  | 87 ± 15 IU |  | 1.6 ± 0.2 |  |  | 100 ± 18 IU | 1.6 ± 0.2 | 1.7 ± 0.2 | 60.5 ± 17.4 | 96 ± 14 | 99 ± 16
